Source: patent publication US8748436B2, “Carboxylic acid derivatives having a 2,5,7-substituted oxazolopyrimidine ring” (Sanofi, priority 2010, dated 2014)

Target: T1, human Edg-1 receptor (Homo sapiens, UniProt P21453)
T1 construct: FLAG (N); expressed in transfected cells; membrane preparation
Assay: GTP-γ-S assay using human Edg-1 receptors (scintillation proximity assay, CHO Flp-In cell membrane preparation)
Type: biochemical
Details: test compound at 10 μM; high control 10 μM S1P regarded as 100% activation; [35S]GTP-γ-S binding, triplicate
In short: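 Scintillation proximity GTP-γ-S binding measured receptor activation. Membranes came from a stably transfected CHO Flp-In line constitutively overexpressing N-terminally FLAG-tagged human Edg-1. Membranes were prepared by hypotonic lysis (5 mM HEPES, 1 mM EDTA, protease inhibitors) at 4 °C and Dounce homogenisation.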

T1 sequence (P21453 whole entry): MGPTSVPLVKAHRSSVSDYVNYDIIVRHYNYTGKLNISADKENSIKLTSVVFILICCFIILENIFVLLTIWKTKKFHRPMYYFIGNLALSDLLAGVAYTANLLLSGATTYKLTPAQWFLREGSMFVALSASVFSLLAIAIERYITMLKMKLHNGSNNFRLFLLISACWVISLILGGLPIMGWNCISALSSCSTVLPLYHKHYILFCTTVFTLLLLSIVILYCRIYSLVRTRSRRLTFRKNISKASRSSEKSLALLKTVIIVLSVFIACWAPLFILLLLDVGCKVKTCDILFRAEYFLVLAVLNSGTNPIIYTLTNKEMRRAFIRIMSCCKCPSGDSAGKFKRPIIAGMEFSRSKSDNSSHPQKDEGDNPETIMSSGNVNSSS

SMILES | % Activation (Edg-1 receptor activation in percent of the activation by 10 μM S1P) [%]
CCCOc1nc(Oc2cccc(F)c2)nc2oc(-c3cc(C)c(OCC(=O)O)c(C)c3)nc12 [Example 34, {4-[5-(3-fiuorophenoxy)-7-propoxy-oxazolo[5,4-d]pyrimidin-2-yl]-2,6-dimethyl-phenoxy}-acetic acid] | 48

Same assay, conditions: test compound at 10 μM; high control 10 μM S1P regarded as 100% activation; [35S]GTP-γ-S binding, triplicate; read-out: % Activation (Edg-1 receptor activation in percent of the activation by 10 μM S1P)

SMILES | activation at 10 µM [%]
CCCOc1nc(Oc2ccc(Cl)cc2F)nc2oc(-c3cc(C)c(OCC(=O)O)c(C)c3)nc12 [Example 59, {4-[5-(4-chloro-2-fluorophenoxy)-7-propoxy-oxazolo[5,4-d]pyrimidin-2-yl]-2,6-dimethyl-phenoxy}-acetic acid] | 72
CCCOc1nc(Oc2cc(F)ccc2F)nc2oc(-c3cc(C)c(OCC(=O)O)c(C)c3)nc12 [Example 1, {4-[5-(2,5-Difluoro-phenoxy)-7-propoxy-oxazolo[5,4-d]pyrimidin-2-yl]-2,6-dimethyl-phenoxy}-acetic acid] | 100
CCCOc1nc(OCC2CCCO2)nc2oc(-c3cc(C)c(OCC(=O)O)c(C)c3)nc12 (centres unmarked) [Example 19, {2,6-dimethyl-4-[7-propoxy-5-(tetrahydrofuran-2-ylmethoxy)-oxazolo[5,4-d]pyrimidin-2-yl]-phenoxy}-acetic acid] | 84
CCCOc1nc(OCC)nc2oc(-c3cc(C)c(OCC(=O)O)c(C)c3)nc12 [Example 17, [4-(5-ethoxy-7-propoxy-oxazolo[5,4-d]pyrimidin-2-yl)-2,6-dimethyl-phenoxy]-acetic acid] | 70
CCCOc1nc(OCCC)c2nc(-c3cc(C)c(OCC(=O)O)c(C)c3)oc2n1 [Example 15, [4-(5,7-dipropoxy-oxazolo[5,4-d]pyrimidin-2-yl)-2,6-dimethyl-phenoxy]-acetic acid] | 98
CCCOc1nc(Oc2cccc(C(F)(F)F)c2)nc2oc(-c3cc(C)c(OCC(=O)O)c(C)c3)nc12 [Example 67, {2,6-dimethyl-4-[7-propoxy-5-(3-trifluoromethylphenoxy)-oxazolo[5,4-d]pyrimidin-2-yl]-phenoxy}-acetic acid] | 82
CCCOc1nc(OC2CCCC2)nc2oc(-c3cc(C)c(OCC(=O)O)c(C)c3)nc12 [Example 2, [4-(5-Cyclopentyloxy-7-propoxy-oxazolo[5,4-d]pyrimidin-2-yl)-2,6-dimethyl-phenoxy]-acetic acid] | 90
CCCOc1nc(Oc2cc(C(F)(F)F)ccc2Cl)nc2oc(-c3cc(C)c(OCC(=O)O)c(C)c3)nc12 [Example 77, {4-[5-(2-chloro-5-trifluoromethylphenoxy)-7-propoxy-oxazolo[5,4-d]pyrimidin-2-yl]-2,6-dimethyl-phenoxy}-acetic acid] | 77
CCCOc1nc(Oc2cnc3ccccc3c2)nc2oc(-c3cc(C)c(OCC(=O)O)c(C)c3)nc12 [Example 58, {2,6-dimethyl-4-[7-propoxy-5-(quinolin-3-yloxy)-oxazolo[5,4-d]pyrimidin-2-yl]-phenoxy}-acetic acid] | 75
CCCOc1nc(OC2CCC2)nc2oc(-c3cc(C)c(OCC(=O)O)c(C)c3)nc12 [Example 14, [4-(5-cyclobutoxy-7-propoxy-oxazolo[5,4-d]pyrimidin-2-yl)-2,6-dimethyl-phenoxy]-acetic acid] | 88
CCCOc1nc(OCCC(C)C)nc2oc(-c3cc(C)c(OCC(=O)O)c(C)c3)nc12 [Example 22, {2,6-dimethyl-4-[5-(3-methyl-butoxy)-7-propoxy-oxazolo[5,4-d]pyrimidin-2-yl]-phenoxy}-acetic acid] | 92

The next lines start with the values.

activation at 10 µM [%] | SMILES
114 | CCCOc1nc(Oc2ccc(C)nc2)nc2oc(-c3cc(C)c(OCC(=O)O)c(C)c3)nc12 [Example 32, {2,6-dimethyl-4-[5-(6-methylpyridin-3-yloxy)-7-propoxy-oxazolo[5,4-d]pyrimidin-2-yl]-phenoxy}-acetic acid]
56 | CCCOc1nc(Oc2ccc(F)c(Cl)c2)nc2oc(-c3cc(C)c(OCC(=O)O)c(C)c3)nc12 [Example 62, {4-[5-(3-chloro-4-fluorophenoxy)-7-propoxy-oxazolo[5,4-d]pyrimidin-2-yl]-2,6-dimethylphenoxy}-acetic acid]
49 | CCCOc1nc(Oc2ccc(F)c(F)c2)nc2oc(-c3cc(C)c(OCC(=O)O)c(C)c3)nc12 [Example 51, {4-[5-(3,4-difluorophenoxy)-7-propoxy-oxazolo[5,4-d]pyrimidin-2-yl]-2,6-dimethylphenoxy}-acetic acid]
59 | CCCOc1nc(Oc2ccc(Cl)cc2)nc2oc(-c3cc(C)c(OCC(=O)O)c(C)c3)nc12 [Example 46, {4-[5-(4-chlorophenoxy)-7-propoxy-oxazolo[5,4-d]pyrimidin-2-yl]-2,6-dimethylphenoxy}-acetic acid]
110 | CCCOc1nc(Oc2cncc(C)c2)nc2oc(-c3cc(C)c(OCC(=O)O)c(C)c3)nc12 [Example 33, {2,6-dimethyl-4-[5-(5-methylpyridin-3-yloxy)-7-propoxy-oxazolo[5,4-d]pyrimidin-2-yl]-phenoxy}-acetic acid]
